Patent publication EP0072137A1, “Antiviral deoxyuridine compounds” (BEECHAM GROUP PLC, priority 1981, dated 1983)
Values after ≈ are worked out from the molar mass of the structure shown. Like-named read-outs stand apart in the source and are kept apart here.

Legend:
[1] = In vivo blood level study: antiviral activity of mouse serum titrated in plaque inhibition assays; set-up: species or system Balb/c mice
Description: Single 100 mg/kg doses of the compound were administered orally as suspensions in carboxymethyl cellulose to groups of 3 starved female Balb/c mice. Blood was collected 120 minutes after dosing and the serum separated and stored at -20°C. Heat inactivated sera from single mice were titrated in plaque inhibition assays using the KOS strain of Herpes simplex type 1 virus in Vero cell monolayers. Antiviral activity is calculated by extrapolation from a standard inhibition dose response curve for E-5-(2-bromovinyl)-2'-deoxyuridine and is quoted as the equivalent concentration of E-5-(2-bromovinyl)-2'-deoxyuridine (in ug/mL) giving the same antiviral activity in cell culture.

[2] = Toxicity to the cell monolayer (MTD) in the plaque reduction assay; type: cell-based; conditions: monkey; minimum concentration which killed the cell monolayer; Vero cells, 6 days
Description: (§1) Vero (African Green Monkey Kidney) cells were grown to confluence in 6 well multidishes, each well being 3.5 cm in diameter. The cells were incubated with Herpes simplex type 1 virus (HFEM strain) and overlaid with 0.5 ml of 0.9% agarose (w/v) in maintenance medium containing the test compound at a range of concentrations from 100 pg/mL in half-log dilution steps. The virus infected cultures were then incubated at 37°C for 6 days before fixing in 4% formaldehyde solution and staining with carbolfuchsin. The dishes were then examined to find what concentration of test compound causing a 50% reduction in the number of virus plaques formed (PDD50 value) and the minimum concentration of test compound which killed the cell monolayer, leaving a clear zone devoid of cells and virus plaques (MTD).

[3] = tested on: Herpes simplex type 1 virus (HFEM strain); assay: Plaque reduction assay in cell culture; type: cell-based; conditions: Human alphaherpesvirus 1, 144 h; concentration causing a 50% reduction in the number of virus plaques; HSV-1 HFEM strain in Vero cells, 37°C, 6 days; read-out: PDD50 (the source's name)
Description: as §1

SMILES	concentration at 2 h ([1]; single 100 mg/kg oral dose, suspension in carboxymethyl cellulose, starved female Balb/c mice, 120 minutes after dosing, HSV-1 KOS in Vero cell monolayers, read-out: Antiviral activity in serum, as equivalent concentration of E-5-(2-bromovinyl)-2'-deoxyuridine) [ng/mL]	MCC at 144 h [2] [µg/mL]	EC50 [3] [µg/mL]	concentration at 2 h ([1]; po, 100 mg/kg) [ng/mL]
O=c1[nH]c(=O)n([C@H]2C[C@H](O)[C@@H](CO)O2)cc1/C=C/Br [E-5-(2-bromo-vinyl)-2'-deoxyuridine, E-5-(2-bromovinyl)-2'-deoxyuridine, reference compound]	1700 ± 500			
Cn1c(=O)c(/C=C/Br)cn([C@H]2C[C@H](O)[C@@H](CO)O2)c1=O [Example 1, E-3-methyl-5-(2-bromovinyl)-2'-deoxyuridine]		> 100	5.4 (≈ 15.6 µM)	3100 ± 800
